Series [1] is described as follows: Solubility in 100 mM glycylglycine buffer at pH 5.0 incubated for 18 hrs by UPLC analysis. The class given is physicochemical.
Series [2] can be described thus: Solubility in 100 mM glycylglycine buffer at pH 4.0 incubated for 18 hrs by UPLC analysis. The class given is physicochemical.
Series [3] in a line: Solubility in 100 mM bistrispropane buffer at pH 6.0 incubated for 18 hrs by UPLC analysis. The class given is physicochemical.
Series [4] in a line: Stability in pH 7.5 buffer assessed as lag time for fibril formation at 1 uM by Thioflavin T based fluorescence assay. It counts as physicochemical. As to conditions: pH 7.5, 1 µM.
The target of series [5] is T1, Calcitonin receptor (Homo sapiens, UniProt P30988).
T1 sequence (P30988 whole entry): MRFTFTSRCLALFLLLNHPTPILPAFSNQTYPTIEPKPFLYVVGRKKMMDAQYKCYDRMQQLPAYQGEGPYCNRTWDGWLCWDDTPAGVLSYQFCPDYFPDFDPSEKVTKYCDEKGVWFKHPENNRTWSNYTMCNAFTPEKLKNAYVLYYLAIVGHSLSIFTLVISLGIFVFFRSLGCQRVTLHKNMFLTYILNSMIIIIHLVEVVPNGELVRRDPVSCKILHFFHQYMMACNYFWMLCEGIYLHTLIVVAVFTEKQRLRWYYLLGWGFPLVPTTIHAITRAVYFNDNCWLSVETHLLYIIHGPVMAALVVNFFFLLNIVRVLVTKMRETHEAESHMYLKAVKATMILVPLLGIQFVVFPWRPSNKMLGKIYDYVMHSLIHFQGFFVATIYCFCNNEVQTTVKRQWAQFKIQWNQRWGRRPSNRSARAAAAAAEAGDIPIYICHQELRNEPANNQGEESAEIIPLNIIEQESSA
In words: Displacement of [125I]-labeled human calcitonin from human calcitonin receptor expressed in BHK tkts13 cell membranes incubated for 1 hr by scintillation proximity assay.

A short description of series [6]: Solubility in 100 mM bistrispropane buffer at pH 7.5 incubated for 18 hrs by UPLC analysis. It counts as physicochemical.
Series [7] addresses T1, Calcitonin receptor. Nature of the series: Agonist activity at human calcitonin receptor expressed in BHK570 cells assessed as increase in intracellular cAMP concentration incubated for 3 hrs in absence of albumin by CRE luciferase reporter gene assay. It counts as functional, cell-based. In general terms: A reporter such as luciferase makes a cellular process visible.
In series [8] the target is T2, Amylin receptor AMY3; CALCR/RAMP3 (Rattus norvegicus, UniProt P32214+Q9JJ73).
T2 sequence (P32214 whole entry): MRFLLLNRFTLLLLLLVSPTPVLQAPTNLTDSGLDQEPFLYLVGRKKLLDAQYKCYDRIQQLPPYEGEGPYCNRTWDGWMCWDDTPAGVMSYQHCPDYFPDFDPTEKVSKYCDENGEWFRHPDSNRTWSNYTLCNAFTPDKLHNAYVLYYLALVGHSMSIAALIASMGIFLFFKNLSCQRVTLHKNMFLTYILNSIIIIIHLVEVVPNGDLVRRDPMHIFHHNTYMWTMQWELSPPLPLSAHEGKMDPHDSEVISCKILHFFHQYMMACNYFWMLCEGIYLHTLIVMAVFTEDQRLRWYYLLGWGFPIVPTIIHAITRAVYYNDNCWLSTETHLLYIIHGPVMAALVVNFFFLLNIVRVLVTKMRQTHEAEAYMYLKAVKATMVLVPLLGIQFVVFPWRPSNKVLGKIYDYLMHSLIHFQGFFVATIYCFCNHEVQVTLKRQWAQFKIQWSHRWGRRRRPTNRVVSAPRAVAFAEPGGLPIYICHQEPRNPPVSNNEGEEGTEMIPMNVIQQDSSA
T2 sequence (Q9JJ73 whole entry): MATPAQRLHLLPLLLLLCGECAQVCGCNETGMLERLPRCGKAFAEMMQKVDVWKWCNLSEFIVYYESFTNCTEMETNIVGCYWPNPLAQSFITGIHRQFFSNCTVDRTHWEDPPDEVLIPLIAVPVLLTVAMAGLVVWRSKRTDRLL
Nature of the series: Displacement of [125I]-labeled rat amylin from rat amylin receptor expressed in BHK tkts13 cell membranes co-expressing RAMP3 incubated for 120 mins by scintillation proximity assay.

Series [9] addresses T3, Amylin receptor AMY3; CALCR/RAMP3 (Homo sapiens, UniProt O60896+P30988).
T3 sequence (P30988 whole entry): T1 sequence (P30988 whole entry)
T3 sequence (O60896 whole entry): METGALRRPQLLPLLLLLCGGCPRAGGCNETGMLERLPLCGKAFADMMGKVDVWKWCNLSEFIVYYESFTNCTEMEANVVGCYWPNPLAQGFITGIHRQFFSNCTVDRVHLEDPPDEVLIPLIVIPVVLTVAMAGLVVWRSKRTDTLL
Nature of the series: Agonist activity at human amylin receptor expressed in BHK570 cells co-expressing RAMP3 assessed as increase in intracellular cAMP concentration incubated for 3 hrs in presence of 10% FBS by CRE luciferase reporter gene assay. The class given is functional, cell-based.

Series [10] is described as follows: Solubility in 100 mM glycylglycine buffer at pH 3.0 incubated for 18 hrs by UPLC analysis. It counts as physicochemical.
Series [11] has as its target T1, Calcitonin receptor. In words: Agonist activity at human calcitonin receptor expressed in BHK570 cells assessed as increase in intracellular cAMP concentration incubated for 3 hrs in presence of 10% FBS by CRE luciferase reporter gene assay. It counts as functional, cell-based.
Series [12] in a line: Solubility in 100 mM bistrispropane buffer at pH 7.0 incubated for 18 hrs by UPLC analysis. The class given is physicochemical.
Series [13] is described as follows: Stability in pH 7.5 buffer assessed as compound recovery at 1 uM by Thioflavin T based fluorescence assay. As to conditions: read-out: Drug recovery. It counts as physicochemical.
A short description of series [14]: Solubility in 100 mM bistrispropane buffer at pH 6.5 incubated for 18 hrs by UPLC analysis. It counts as physicochemical.
Series [15] can be described thus: Solubility in 100 mM bistrispropane buffer at pH 8.0 incubated for 18 hrs by UPLC analysis. The class given is physicochemical.
The target in series [16] is T3, Amylin receptor AMY3; CALCR/RAMP3. In words: Agonist activity at human amylin receptor expressed in BHK570 cells co-expressing RAMP3 assessed as increase in intracellular cAMP concentration incubated for 3 hrs in absence of albumin by CRE luciferase reporter gene assay. It counts as functional, cell-based.
The subject of series [17] is Rattus norvegicus. Nature of the series: Reduction in food intake in Sprague-Dawley rat at 3 nmol/kg measured 0 to 24 hrs post dose relative to control. The class given is functional. On the set-up: scale not given: the % may be the effect or the level left.
The test system of series [18] is Rattus norvegicus. Nature of the series: Reduction in food intake in Sprague-Dawley rat at 3 nmol/kg measured 24 to 48 hrs post dose relative to control. It counts as functional. Set-up: scale not given: the % may be the effect or the level left.

The structures appear in SMILES notation. Numbered stars: 1 amine (or outer) side, 2 acyl side, 3 side chain; on linkers, the order of the positions; unused ones are H or OH. Side chains are listed from the residue outwards. Peptide text beside a SMILES is read from it. * marks the point of attachment. C20 diacid = O=C(O)CCCCCCCCCCCCCCCCCCC(=O)*; γGlu = O=C(O)[C@H](CCC(=O)[*:2])N[*:1]

These results are taken from ChEMBL document CHEMBL4420076, “Amylin and calcitonin receptor agonist” (2017).

For `CC(C)C[C@H](NC(=O)[C@H](C)NC(=O)[C@H](C)NC(=O)[C@@H](NC(=O)[C@H](CO)NC(=O)[C@H](CC(C)C)NC(=O)[C@H](CCC(=O)O)NC(=O)[C@H](CO)NC(=O)[C@H](C)N)[C@@H](C)O)C(=O)NCC(=O)N[C@@H](CCCNC(=N)N)C(=O)N[C@@H](CC(C)C)C(=O)N[C@@H](CO)C(=O)N[C@@H](C)C(=O)N[C@@H](CCC(=O)O)C(=O)N[C@@H](CC(C)C)C(=O)N[C@@H](Cc1cnc[nH]1)C(=O)N[C@@H](CCCCNC(=O)CC[C@H](NC(=O)CCCCCCCCCCCCCCCCCCC(=O)O)C(=O)O)C(=O)N[C@@H](CC(C)C)C(=O)N[C@@H](C)C(=O)N[C@H](C(=O)N[C@@H](CC(C)C)C(=O)N1CCC[C@H]1C(=O)N[C@@H](CCCNC(=N)N)C(=O)N[C@H](C(=O)N[C@@H](CCC(=O)O)C(=O)N[C@H](C(=O)NCC(=O)N[C@@H](CO)C(=O)NCC(=O)N[C@@H](CO)C(=O)N1CCC[C@H]1C(N)=O)[C@@H](C)O)[C@@H](C)O)[C@@H](C)O` (H-ASELSTAALGRLSAELHK([γGlu-C20 diacid])LATLPRTETGSGSP-NH2), the solubility at 18 h in series [1], in series [2], in series [3], in series [6], in series [10] and in [12] was at least 200 µM in each case. Also, the solubility at 18 h in series [14] and in series [15] was at least 200 µM in each case. Further, in [4], the Time was over 45 h. Also, the IC50 in series [5] is 0.085 nM; in series [8], 0.455 nM. Besides, the EC50 in [7] is 0.019 nM; in series [9], 0.049 nM; in series [11] it was 0.028 nM. The remaining at 1 µM in series [13] worked out at 100%.
Take `CC(C)C[C@H](NC(=O)[C@H](C)NC(=O)[C@H](C)NC(=O)[C@@H](NC(=O)[C@H](CO)NC(=O)[C@H](CC(C)C)NC(=O)[C@H](CCC(=O)O)NC(=O)[C@H](CO)NC(=O)[C@H](C)NC(=O)CC[C@H](NC(=O)CCCCCCCCCCCCCCCCCCC(=O)O)C(=O)O)[C@@H](C)O)C(=O)NCC(=O)N[C@@H](CCCNC(=N)N)C(=O)N[C@@H](CC(C)C)C(=O)N[C@@H](CO)C(=O)N[C@@H](C)C(=O)N[C@@H](CCC(=O)O)C(=O)N[C@@H](CC(C)C)C(=O)N[C@@H](Cc1cnc[nH]1)C(=O)N[C@@H](CCC(=O)O)C(=O)N[C@@H](CC(C)C)C(=O)N[C@@H](C)C(=O)N[C@H](C(=O)N[C@@H](CC(C)C)C(=O)N1CCC[C@H]1C(=O)N[C@@H](CCCNC(=N)N)C(=O)N[C@H](C(=O)N[C@@H](CCC(=O)O)C(=O)N[C@H](C(=O)NCC(=O)N[C@@H](CO)C(=O)NCC(=O)N[C@@H](CO)C(=O)N[C@@H](Cc1ccc(O)cc1)C(N)=O)[C@@H](C)O)[C@@H](C)O)[C@@H](C)O` ({C20 diacid-γGlu}-ASELSTAALGRLSAELHELATLPRTETGSGSY-NH2): the solubility at 18 h in series [2], in series [3], in [6], in series [10], in [12] and in series [14] was at least 200 µM in each case. The compound also displayed a solubility at 18 h in [15] of at least 200 µM. Further, the Time in series [4] is over 45 h. Also, the IC50 in [5] was 0.113 nM; in series [8] it was 0.029 nM. The EC50 in series [7] was 0.037 nM; in series [9], 0.062 nM; in [16] it was 0.046 nM; in series [11], 0.049 nM. Further, the remaining at 1 µM in [13] amounted to 100%.
For the compound `CC(C)C[C@H](NC(=O)CNC(=O)[C@H](CO)NC(=O)[C@H](C)NC(=O)CC[C@H](NC(=O)CCCCCCCCCCCCCCCCCCC(=O)O)C(=O)O)C(=O)N[C@@H](CO)C(=O)N[C@H](C(=O)N[C@@H](C)C(=O)N[C@H](C(=O)N[C@@H](CC(C)C)C(=O)NCC(=O)N[C@@H](CCCCN)C(=O)N[C@@H](CC(C)C)C(=O)N[C@@H](CO)C(=O)N[C@@H](CCC(N)=O)C(=O)N[C@@H](CCC(=O)O)C(=O)N[C@@H](CC(C)C)C(=O)N[C@@H](Cc1cnc[nH]1)C(=O)N[C@@H](CCC(=O)O)C(=O)N[C@@H](CC(C)C)C(=O)N[C@@H](CCC(N)=O)C(=O)N[C@H](C(=O)N[C@@H](Cc1ccc(O)cc1)C(=O)N1CCC[C@H]1C(=O)N1CCC[C@H]1C(=O)N[C@H](C(=O)N[C@@H](CCC(=O)O)C(=O)N[C@H](C(=O)NCC(=O)N[C@@H](CO)C(=O)NCC(=O)N[C@H](C(=O)N[C@@H](Cc1ccc(O)cc1)C(N)=O)[C@@H](C)O)[C@@H](C)O)[C@@H](C)O)[C@@H](C)O)C(C)C)[C@@H](C)O` ({C20 diacid-γGlu}-ASGLSTAVLGKLSQELHELQTYPPTETGSGTY-NH2), the results for the Activity in series [17] and in series [18] were 8% and 9%, respectively. In addition, the solubility at 18 h in series [1], in series [3], in [6], in [10], in series [12] and in series [14] was at least 200 µM in each case. For the same compound, the solubility at 18 h in series [15] is at least 200 µM. Besides, the concentration for half-maximal inhibition (IC50) in [5] was 0.651 nM; in series [8], 0.385 nM. Further, the EC50 in series [7] is 0.015 nM; in [9], 0.154 nM; in series [16] it was 0.018 nM; in series [11], 0.062 nM.

In general, solubility refers to how much of the substance goes into solution per volume. A word on the IC50: it is the concentration needed to halve the response being measured. The term EC50 denotes the midpoint of the concentration-response curve.
